Data reported in patent US7709223B2, “Method for detecting bacteria with chromogenic substrates for β-D-ribofuranosidase” (priority 2001, dated 2010).
Where a name gives a salt, the structure may show the parent alone.

Columns and labels:
Test in all cases: Hydrolysis on Columbia agar with ferric ammonium citrate
Format in all cases: cell-based
Vibrio mimicus = Vibrio mimicus NCTC 11435
Procedure: (§1) The chromogenic β-D-ribofuranoside substrate was added to Columbia agar at a substrate concentration of 300 mg/l. Ferric ammonium citrate was included at 500 mg/l. All ingredients were autoclaved at 116° C. for 20 minutes to ensure sterilisation. Agar plates were then prepared in 90 mm petri dishes. The substrate caused a yellow colouration of the agar.
(§2) For each strain tested, a bacterial suspension was prepared in sterile deionised water at an inoculum of approximately 1.5×10^8 colony forming units per ml. This was achieved using a densitometer. 1 μl of each bacterial suspension was then inoculated onto each plate using a multipoint inoculator. Strains were inoculated in parallel onto Columbia agar containing ferric ammonium citrate with no substrate (negative control).
(§3) After 18 hours incubation, strains were examined visually for the presence of colour. Any strains producing a black colouration on substrate containing media but not on the negative control plates were deemed to be hydrolysing the substrate.

[1] = tested on: Staphylococcus haemolyticus
Procedure: as §1, §2, §3

Streptococcus oralis = Streptococcus oralis NCTC11427
Procedure: as §1, §2, §3

Providencia stuartii = tested on: Providencia stuartii
Procedure: as §1, §2, §3

Vibrio parahaemolyticus = tested on: Vibrio parahaemolyticus
Procedure: as §1, §2, §3

Bacillus licusniforms = Bacillus licusniforms NCIMB 9375
Procedure: as §1, §2, §3

P. rettgeri = P. rettgeri NCTC 7475
Procedure: as §1, §2, §3

A. lwoffii = A. lwoffii ATCC 15309
Procedure: as §1, §2, §3

Streptococcus agalactiae = Streptococcus agalactiae NCTC 8181
Procedure: as §1, §2, §3

Enterococcus faecium = tested on: Enterococcus faecium
Procedure: as §1, §2, §3

Vibrio cholerae = tested on: Vibrio cholerae
Procedure: as §1, §2, §3

Streptococcus sanguis = Streptococcus sanguis NCTC 7863
Procedure: as §1, §2, §3

[2] = tested on: Haemolytic streptococcus G
Procedure: as §1, §2, §3

Enterococcus casseflavus = Enterococcus casseflavus NCTC 12361
Procedure: as §1, §2, §3

Vibrio hollisae = Vibrio hollisae NCTC 11640
Procedure: as §1, §2, §3

Vibrio alcaligenes = Vibrio alcaligenes NCTC 12160
Procedure: as §1, §2, §3

A. calcoaceticus = A. calcoaceticus ATCC 7844
Procedure: as §1, §2, §3

Vibrio anguillarum = Vibrio anguillarum NCTC 12159
Procedure: as §1, §2, §3

P. mirabilis = tested on: P. mirabilis
Procedure: as §1, §2, §3

Vibrio vulnificus = tested on: Vibrio vulnificus
Procedure: as §1, §2, §3

Enterococcus gallinarum = Enterococcus gallinarum NCTC 11428
Procedure: as §1, §2, §3

Enterococcus durans = Enterococcus durans NCTC 8307
Procedure: as §1, §2, §3

Enterococcus mundtii = Enterococcus mundtii NCTC 12363
Procedure: as §1, §2, §3

staphylococci = settings: all of the staphylococci
Procedure: as §1, §2, §3

[3] = tested on: Staphylococcus epidermidis
Procedure: as §1, §2, §3

Vibrio cincinnatiensis = Vibrio cincinnatiensis NCTC 12012
Procedure: as §1, §2, §3

M. morganii = tested on: M. morganii
Procedure: as §1, §2, §3

Streptococcus pneumoniae = Streptococcus pneumoniae NCTC 7465
Procedure: as §1, §2, §3

P. aeruginosa = tested on: P. aeruginosa
Procedure: as §1, §2, §3

Shigella genus = tested on: Shigella genus
Procedure: as §1, §2, §3

Streptococcus salivarius = Streptococcus salivarius NCTC 8618
Procedure: as §1, §2, §3

Bacillus cereus = Bacillus cereus NCTC
Procedure: as §1, §2, §3

`O=c1cc(-c2ccc(OC3OC(CO)C(O)C3O)c(O)c2)oc2ccccc12` [DHF-riboside, 3′,4′-Dihydroxyflavone-4′-β-D-ribofuranoside sodium salt] was tested, and the “β-Riboside (hydrolysis)” value (Vibrio mimicus) was “−”, the “β-Ribofuranoside (hydrolysis)” value ([1]; Staphylococcus haemolyticus RB 66) was “+” and the “β-Ribofuranoside (hydrolysis)” value ([1]; Staphylococcus haemolyticus RB 67) was “+”. The “β-Ribofuranoside (hydrolysis)” value ([1]; Staphylococcus haemolyticus RB 68) was “+”, the “β-Ribofuranoside (hydrolysis)” value ([1]; Staphylococcus haemolyticus RB 69) was “+” and the “β-Ribofuranoside (hydrolysis)” value ([1]; Staphylococcus haemolyticus RB 70) was “+”. For the same compound, the “β-Ribofuranoside (hydrolysis)” value (Streptococcus oralis) was “−”, the “β-Riboside (hydrolysis)” value (Providencia stuartii; Providencia stuartii PST 1) was “+” and the “β-Riboside (hydrolysis)” value (Providencia stuartii; Providencia stuartii PST 2) was “+”. The “β-Riboside (hydrolysis)” value (Vibrio parahaemolyticus; Vibrio parahaemolyticus NCTC 10441) was “−”, the “β-Riboside (hydrolysis)” value (Vibrio parahaemolyticus; Vibrio parahaemolyticus NCTC 10884) was “−” and the “β-Riboside (hydrolysis)” value (Vibrio parahaemolyticus; Vibrio parahaemolyticus NCTC 10903) was “−”. The “β-Riboside (hydrolysis)” value (Vibrio parahaemolyticus; Vibrio parahaemolyticus NCTC 11344) was “−”, the “β-Riboside (hydrolysis)” value (Vibrio parahaemolyticus; Vibrio parahaemolyticus NCTC 12205) was “−” and the “β-Ribofuranoside (hydrolysis)” value (Bacillus licusniforms) was “−”. The “β-Riboside (hydrolysis)” value (P. rettgeri) was “+”, the “β-Riboside (hydrolysis)” value (A. lwoffii) was “−” and the “β-Ribofuranoside (hydrolysis)” value (Streptococcus agalactiae) was “−”. For the same compound, the “β-Ribofuranoside (hydrolysis)” value (Enterococcus faecium; Enterococcus faecium 121285 - wild ′99) was “−”, the “β-Ribofuranoside (hydrolysis)” value (Enterococcus faecium; Enterococcus faecium, Reference No. 1) was “−” and the “β-Ribofuranoside (hydrolysis)” value (Enterococcus faecium; Enterococcus faecium, Reference No. 2) was “−”. The “β-Ribofuranoside (hydrolysis)” value (Enterococcus faecium; Enterococcus faecium, Reference No. 3) was “−”, the “β-Ribofuranoside (hydrolysis)” value (Enterococcus faecium; Enterococcus faecium, Reference No. 4) was “+” and the “β-Ribofuranoside (hydrolysis)” value (Enterococcus faecium; Enterococcus faecium, Reference No. 5) was “−”. The “β-Ribofuranoside (hydrolysis)” value (Enterococcus faecium; Enterococcus faecium, Reference No. 6) was “+”, the “β-Ribofuranoside (hydrolysis)” value (Enterococcus faecium; Enterococcus faecium, Reference No. 7) was “−” and the “β-Riboside (hydrolysis)” value (Vibrio cholerae; Vibrio cholera NCTC 6585) was “−”. The “β-Riboside (hydrolysis)” value (Vibrio cholerae; Vibrio cholera NCTC 7270) was “−”, the “β-Riboside (hydrolysis)” value (Vibrio cholerae; Vibrio cholera NCTC 8021) was “−” and the “β-Riboside (hydrolysis)” value (Vibrio cholerae; Vibrio cholera NCTC 10732) was “−”. For the same compound, the “β-Riboside (hydrolysis)” value (Vibrio cholerae; Vibrio cholera NCTC 12945) was “−”, the “β-Riboside (hydrolysis)” value (Vibrio cholerae; Vibrio cholerae NCTC 7254) was “−” and the “β-Riboside (hydrolysis)” value (Vibrio cholerae; Vibrio cholerae NCTC 8042) was “−”. For the same compound, the “β-Riboside (hydrolysis)” value (Vibrio cholerae; Vibrio cholerae NCTC 10255) was “−”, the “β-Riboside (hydrolysis)” value (Vibrio cholerae; Vibrio cholerae NCTC 10954) was “−” and the “β-Ribofuranoside (hydrolysis)” value (Streptococcus sanguis) was “−”. For the same compound, the “β-Ribofuranoside (hydrolysis)” value ([2]; Reference No. 1) was “−”, the “β-Ribofuranoside (hydrolysis)” value ([2]; Reference No. 2) was “−” and the “β-Ribofuranoside (hydrolysis)” value ([2]; Reference No. 3) was “+”. For the same compound, the “β-Ribofuranoside (hydrolysis)” value (Enterococcus casseflavus) was “−”, the “β-Riboside (hydrolysis)” value (Vibrio hollisae) was “−” and the “β-Riboside (hydrolysis)” value (Vibrio alcaligenes) was “−”. For the same compound, the “β-Riboside (hydrolysis)” value (A. calcoaceticus) was “−”, the “β-Riboside (hydrolysis)” value (Vibrio anguillarum) was “−” and the “β-Riboside (hydrolysis)” value (P. mirabilis; P. mirabilis NCTC 10975) was “−”. The “β-Riboside (hydrolysis)” value (P. mirabilis; P. mirabilis PMI 1) was “−”, the “β-Riboside (hydrolysis)” value (P. mirabilis; P. mirabilis PMI 2) was “−” and the “β-Riboside (hydrolysis)” value (Vibrio vulnificus; Vibrio vulnificus NCTC 11066) was “−”. For the same compound, the “β-Riboside (hydrolysis)” value (Vibrio vulnificus; Vibrio vulnificus NCTC 11067) was “−”, the “β-Ribofuranoside (hydrolysis)” value (Enterococcus gallinarum) was “+” and the “β-Ribofuranoside (hydrolysis)” value (Enterococcus durans) was “−”. The “β-Ribofuranoside (hydrolysis)” value (Enterococcus mundtii) was “+”, the “Activity with the substrate” value (staphylococci) was “positive” and the “β-Ribofuranoside (hydrolysis)” value ([3]; Staphylococcus epidermidis RB60) was “++”. For the same compound, the “β-Ribofuranoside (hydrolysis)” value ([3]; Staphylococcus epidermidis RB62) was “+”, the “β-Ribofuranoside (hydrolysis)” value ([3]; Staphylococcus epidermidis RB63) was “+” and the “β-Ribofuranoside (hydrolysis)” value ([3]; Staphylococcus epidermidis RB64) was “+”. For the same compound, the “β-Ribofuranoside (hydrolysis)” value ([3]; Staphylococcus epidermidis RB65) was “+”, the “β-Riboside (hydrolysis)” value (Vibrio cincinnatiensis) was “−” and the “β-Riboside (hydrolysis)” value (M. morganii; M. morganii MMO 1) was “+”. For the same compound, the “β-Riboside (hydrolysis)” value (M. morganii; M. morganii MMO 2) was “+”, the “β-Riboside (hydrolysis)” value (M. morganii; M. morganii NCTC 235) was “−” and the “β-Ribofuranoside (hydrolysis)” value (Streptococcus pneumoniae) was “−”. For the same compound, the “β-Riboside (hydrolysis)” value (P. aeruginosa; P. aeruginosa ATCC 10145) was “+”, the “β-Riboside (hydrolysis)” value (P. aeruginosa; P. aeruginosa NCTC 10662) was “+” and the β-D-ribofuranosidase activity (Shigella genus) was “uniformly positive”. For the same compound, the “β-Ribofuranoside (hydrolysis)” value (Streptococcus salivarius) was “−” and the “β-Ribofuranoside (hydrolysis)” value (Bacillus cereus) was “−”.
